This passage reports Activity results from ChEMBL document CHEMBL1153852, “Steroidal lactones as inhibitors of 17beta-hydroxysteroid dehydrogenase type 5: chemical synthesis, enzyme inhibitory activity, and assessment of estrogenic and androgenic activities” (Eur J Med Chem, 2009).

Calls of active or inactive are those of the source. The calls are words filed in the database; no cut-off is given here.

The target of test [1] is T1, Estrogen receptor (Rattus norvegicus) (UniProt P06211).
T1 sequence (whole entry): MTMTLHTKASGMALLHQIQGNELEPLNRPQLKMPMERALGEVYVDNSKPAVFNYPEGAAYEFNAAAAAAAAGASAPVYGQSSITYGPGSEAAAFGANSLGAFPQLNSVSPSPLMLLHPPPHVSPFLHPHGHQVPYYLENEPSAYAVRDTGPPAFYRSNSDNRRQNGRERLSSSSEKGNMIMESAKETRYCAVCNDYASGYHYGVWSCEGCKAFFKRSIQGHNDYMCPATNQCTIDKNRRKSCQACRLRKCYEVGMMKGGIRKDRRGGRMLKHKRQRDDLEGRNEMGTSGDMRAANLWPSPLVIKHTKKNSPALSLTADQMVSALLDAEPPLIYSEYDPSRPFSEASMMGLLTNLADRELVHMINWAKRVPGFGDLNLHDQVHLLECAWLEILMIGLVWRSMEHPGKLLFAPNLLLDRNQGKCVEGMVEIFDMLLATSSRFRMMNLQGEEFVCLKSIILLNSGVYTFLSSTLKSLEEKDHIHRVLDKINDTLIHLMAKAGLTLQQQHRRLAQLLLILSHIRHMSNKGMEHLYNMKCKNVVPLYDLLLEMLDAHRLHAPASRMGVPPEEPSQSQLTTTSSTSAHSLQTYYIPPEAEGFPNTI
Nature of the test: Binding affinity to rat uterus estrogen receptor at 1 uM.

In test [2] the target is T2, Progesterone receptor (Rattus norvegicus) (UniProt Q63449).
T2 sequence (whole entry): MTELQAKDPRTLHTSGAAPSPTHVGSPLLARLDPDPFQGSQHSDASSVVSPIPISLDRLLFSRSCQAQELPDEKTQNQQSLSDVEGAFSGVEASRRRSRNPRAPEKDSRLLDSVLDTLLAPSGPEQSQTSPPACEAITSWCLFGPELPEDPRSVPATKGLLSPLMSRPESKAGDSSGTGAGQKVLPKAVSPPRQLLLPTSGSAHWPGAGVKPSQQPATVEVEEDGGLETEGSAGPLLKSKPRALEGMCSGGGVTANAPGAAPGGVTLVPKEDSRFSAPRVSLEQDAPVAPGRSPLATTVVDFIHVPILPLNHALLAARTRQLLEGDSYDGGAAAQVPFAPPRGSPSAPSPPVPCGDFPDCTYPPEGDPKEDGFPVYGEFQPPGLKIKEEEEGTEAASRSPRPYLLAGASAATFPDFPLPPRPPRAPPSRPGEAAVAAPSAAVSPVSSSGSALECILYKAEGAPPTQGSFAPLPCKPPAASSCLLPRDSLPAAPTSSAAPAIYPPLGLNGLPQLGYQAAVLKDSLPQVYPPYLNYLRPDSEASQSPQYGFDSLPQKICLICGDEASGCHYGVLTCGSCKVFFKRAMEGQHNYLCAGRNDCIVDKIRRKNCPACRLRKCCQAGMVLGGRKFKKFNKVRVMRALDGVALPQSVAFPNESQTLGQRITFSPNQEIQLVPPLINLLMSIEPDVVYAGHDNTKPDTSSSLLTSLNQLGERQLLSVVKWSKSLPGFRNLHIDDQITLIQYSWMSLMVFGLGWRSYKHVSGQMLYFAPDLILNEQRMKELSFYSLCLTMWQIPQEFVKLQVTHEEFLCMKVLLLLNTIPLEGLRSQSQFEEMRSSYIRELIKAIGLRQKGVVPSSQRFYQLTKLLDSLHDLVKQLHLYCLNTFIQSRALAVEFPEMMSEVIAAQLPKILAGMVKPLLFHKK
Nature of the test: Binding affinity to rat uterus progesterone receptor at 0.01 uM.

In test [3] the target is T3, 17-beta-hydroxysteroid dehydrogenase type 2 (Homo sapiens) (UniProt P37059).
T3 sequence (whole entry): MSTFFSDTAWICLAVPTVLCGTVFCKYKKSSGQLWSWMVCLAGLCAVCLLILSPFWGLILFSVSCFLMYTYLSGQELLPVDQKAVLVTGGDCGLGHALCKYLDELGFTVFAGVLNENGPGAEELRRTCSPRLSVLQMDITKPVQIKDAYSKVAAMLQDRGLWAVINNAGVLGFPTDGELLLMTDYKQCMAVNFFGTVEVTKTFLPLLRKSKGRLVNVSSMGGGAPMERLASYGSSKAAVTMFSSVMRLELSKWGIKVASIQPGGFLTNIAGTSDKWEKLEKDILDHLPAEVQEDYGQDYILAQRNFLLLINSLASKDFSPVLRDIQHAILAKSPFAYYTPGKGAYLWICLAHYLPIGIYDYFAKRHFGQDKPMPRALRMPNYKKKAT
Kind of test: Inhibition of human 17beta-HSD2 expressed in HEK293 cells assessed as enzyme-mediated transformation of [14C]-testosterone in to [14C]-4-androstene-3,17-dione at 1 uM. Type of test: cell-based.

Regarding `CC1(C)CC[C@@]2(CC[C@H]3[C@@H]4CCc5ccccc5[C@H]4CC[C@@]32C)OC1=O`, the Activity in test [1] and in test [2] was 0% each time.

With `CC1(C)CC[C@@]2(CC[C@H]3[C@@H]4CCc5cc(O)ccc5[C@H]4CC[C@@]32C)OC1=O`, the result in test [3] was inactive.
